The target of assay [1] is T1, FOXM1 (Homo sapiens, UniProt Q08050).
T1 sequence (Q08050 1-763): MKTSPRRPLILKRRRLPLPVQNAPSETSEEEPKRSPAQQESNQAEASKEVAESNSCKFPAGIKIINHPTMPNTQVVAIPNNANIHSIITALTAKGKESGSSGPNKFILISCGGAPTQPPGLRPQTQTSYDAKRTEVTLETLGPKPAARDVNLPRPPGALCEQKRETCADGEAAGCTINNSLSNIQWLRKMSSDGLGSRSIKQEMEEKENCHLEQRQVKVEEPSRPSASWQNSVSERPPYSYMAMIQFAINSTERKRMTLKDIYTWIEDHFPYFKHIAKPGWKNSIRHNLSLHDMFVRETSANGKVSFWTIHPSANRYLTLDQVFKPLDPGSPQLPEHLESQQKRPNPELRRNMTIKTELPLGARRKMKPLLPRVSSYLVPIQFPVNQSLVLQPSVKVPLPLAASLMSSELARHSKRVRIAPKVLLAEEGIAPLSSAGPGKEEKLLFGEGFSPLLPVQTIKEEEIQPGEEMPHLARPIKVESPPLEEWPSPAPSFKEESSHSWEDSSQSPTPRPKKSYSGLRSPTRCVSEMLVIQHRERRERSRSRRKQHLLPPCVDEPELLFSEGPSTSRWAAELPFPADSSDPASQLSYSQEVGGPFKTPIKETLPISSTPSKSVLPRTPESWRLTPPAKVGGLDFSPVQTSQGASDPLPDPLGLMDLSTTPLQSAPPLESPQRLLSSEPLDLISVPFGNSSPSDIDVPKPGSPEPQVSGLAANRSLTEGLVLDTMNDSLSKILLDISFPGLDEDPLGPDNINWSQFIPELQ
The assay can be described thus: tr-FRET competitive binding assay with Fl-NB-72 probe. Also noted: we attached a terbium donor to purified, full length FOXM1 through a streptavidin-biotin linker. The note with it: displacement of Fl-NB-72 (100 nM), tr-FRET. How it is done:
Competitive binding assays of compound binding to FOXM1 by tr-FRET were done in FRET buffer (20 mM Tris, pH 7.5, 50 mM NaCl, 0.01% NP-40 detergent, 10% glycerol) with 0.3 mg/ml ovalbumin and 0.1 mM butylated hydroxy-anisole added fresh daily. Solutions of the protein, fluorescent probe and compound dilutions were prepared at 3× concentrations, the final dilution taking place as they were mixed together in equal portions on the microtiter plate.
Final concentrations were 10^−5 M to 10^−9 M, with the last point being buffer only, no compound. Fluorescein-NB-72 (Fl-NB- 72) was prepared at 1 mM in DMF and stored at −20 °C. It was diluted into FRET buffer to give 100 nM in the assay. Incubations were done in duplicate on black Molecular Devices 96-well microtiter plates. 5 μl of Fl-NB-72 and 5 μl of the compound dilutions, were mixed together on the plate. To this was added 5 µl biotin-FoxM1 and incubated in the dark at room temperature, for 1 h. […] To correct for background signals, biotin-FOXM1 was omitted, and diffusion-enhanced FRET incubations were done in duplicate on black Molecular Devices 96-well microtiter plates. Five microliter of Fl-NB-72 and 5 μl of the compound solutions were mixed together and then 5 µl of FRET buffer plus SaTb was added, mixed and incubated in the dark at room temperature, for 1 h. The tr-FRET signals measured as above were subtracted as a background from the first incubations that contained biotin-FOXM1. Graphs were prepared using Graph Pad/Prism 4.

For assay [2], the system named is MCF7 cells. The assay can be described thus: RNA-Seq gene regulation in MCF7 cells. The class given is cell-based, human. How it is done: For gene expression analysis, total RNA was extracted from cells using Trizol reagent and further cleaned using the Turbo DNase and RNAqueous kits (ThermoFisher). Cells were treated with Veh (0.1% EtOH), or with the compounds indicated for 9 h or 24 h. Once the sample quality and replicate reproducibility were verified, samples from each group were subjected to sequencing. RNA at a concentration of 100 ng/µl in nuclease-free water was used for library construction. cDNA libraries were prepared with the mRNA-TruSeq Kit (Illumina, Inc.). In brief, the poly-A containing mRNA was purified from total RNA, the RNA was fragmented, double-stranded cDNA was generated from fragmented RNA, and adapters were ligated to the ends.
The paired-end read data from the HiSeq 4000 were processed and analyzed through a series of steps. Base calling and de-multiplexing of samples within each lane were done with Casava 1.8.2. The RNA sequences were prepared with Illumina’s TruSeq Stranded mRNAseq Sample Prep kit. Reads were trimmed of adapters and low expression data using Trimmomatic version 0.38.[42] The STAR alignment tool version 2.5.3a was used to align the sequenced reads to the GRCh37 human genome from Ensembl.[43] Gene counts were calculated using subread version 1.5.2.[44],[45] The edgeR Bioconductor package in R was used for normalization and differential expression analysis. Default normalization methods were used, specifically trimmed mean of M values or TMM was used to calculate the normalized expression values. This method calculates the weighted trimmed mean of the log expression ratios in a gene-wise fashion.[46],[47] We considered genes with fold-change > 2 and p-value < 0.05 as statistically significant, differentially expressed.

Assay [3] has as its system MCF10A breast cell line. The assay can be described thus: Cell proliferation in non-tumorigenic MCF10A cells. The class given is cell-based, human. Particulars: low level of FOXM1. How it is done:
(§1) WST-1 assay (Roche, Basel, Switzerland) was used to quantify cell viability as described.[38] Absorbance was measured at 450 nm using a VICTOR X5 PerkinElmer 2030 Multilabel Plate Reader. All assays were performed in triplicate and analyzed using Graph Pad Prism 8.0.

In assay [4] the test system is MDA-MB-231 and MDA-MB-453 breast cancer cells. The assay can be described thus: Cell proliferation in triple negative MDA-MB-231 and MDA-MB-453 cells. The class given is cell-based. The note with it: Homo sapiens, read-out: IC50 antiproliferative. As to the method: as §1

The results in this text go back to PMC6884575, “Suppression of FOXM1 activities and breast cancer growth in vitro and in vivo by a new class of compounds” (NPJ Breast Cancer, 2019).

A word on the IC50: it is the concentration that inhibits the measured activity by half.

Consider `Clc1ccc(C(=C2C3CC4CC(C3)CC2C4)c2ccc(OCCCCCCN3CCCC3)cc2)cc1` [NB-55], for which the figures for the IC50 in assay [1] and in assay [4] were 1240 nM and 3000 to 5000 nM, respectively. The “genes regulated that overlapped with NB-73 regulated genes” value in assay [2] (MCF7, 9 h, more than 2-fold, FDR < 0.05) was 72%. Also, the “genes regulated more than 2-fold (Venn diagram)” value in assay [2] (MCF7, 9 h treatment, p < 0.05, FDI-6 20 µM) was 567 genes. For the same compound, the “concentration for 50% suppression of proliferation relative to breast cancer cell lines” value in assay [3] is on record as “five times higher”.
